ChEMBL document CHEMBL5465560, “Selectivity Literature for EUbOPEN Chemogenomic Library” (2024)

Experiments:
[1] = molecular target: T1, Cytoplasmic tyrosine-protein kinase BMX (Homo sapiens) (UniProt P51813); assay: Selectivity interaction (Millipore kinase profiler) EUB0000124b BMX; conditions: at 10 µM
T1 sequence (whole entry): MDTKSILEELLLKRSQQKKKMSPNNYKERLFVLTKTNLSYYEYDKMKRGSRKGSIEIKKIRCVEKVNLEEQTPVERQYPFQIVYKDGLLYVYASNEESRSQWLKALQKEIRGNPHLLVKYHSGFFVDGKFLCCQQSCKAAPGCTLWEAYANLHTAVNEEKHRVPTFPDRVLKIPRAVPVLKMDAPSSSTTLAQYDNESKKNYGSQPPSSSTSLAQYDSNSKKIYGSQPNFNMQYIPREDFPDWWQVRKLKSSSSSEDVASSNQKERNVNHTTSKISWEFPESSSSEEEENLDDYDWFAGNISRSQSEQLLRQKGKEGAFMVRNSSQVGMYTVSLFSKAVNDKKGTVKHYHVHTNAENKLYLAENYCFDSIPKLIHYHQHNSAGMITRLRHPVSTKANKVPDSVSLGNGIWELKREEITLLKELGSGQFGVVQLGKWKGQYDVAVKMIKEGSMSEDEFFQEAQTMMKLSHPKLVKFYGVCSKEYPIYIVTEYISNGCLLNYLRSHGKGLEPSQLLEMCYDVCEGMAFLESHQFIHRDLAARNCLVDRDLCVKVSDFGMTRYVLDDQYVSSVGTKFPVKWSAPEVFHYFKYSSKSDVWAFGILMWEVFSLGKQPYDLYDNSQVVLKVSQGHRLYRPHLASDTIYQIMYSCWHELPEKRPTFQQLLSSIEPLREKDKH

[2] = molecular target: Transcription initiation factor TFIID subunit 1-like (Homo sapiens) (UniProt Q8IZX4); assay: Selectivity interaction (Human bromodomain panel (DSF assay)) EUB0000233b TAF1L
Sequence of Transcription initiation factor TFIID subunit 1-like (Homo sapiens) (Q8IZX4 whole entry): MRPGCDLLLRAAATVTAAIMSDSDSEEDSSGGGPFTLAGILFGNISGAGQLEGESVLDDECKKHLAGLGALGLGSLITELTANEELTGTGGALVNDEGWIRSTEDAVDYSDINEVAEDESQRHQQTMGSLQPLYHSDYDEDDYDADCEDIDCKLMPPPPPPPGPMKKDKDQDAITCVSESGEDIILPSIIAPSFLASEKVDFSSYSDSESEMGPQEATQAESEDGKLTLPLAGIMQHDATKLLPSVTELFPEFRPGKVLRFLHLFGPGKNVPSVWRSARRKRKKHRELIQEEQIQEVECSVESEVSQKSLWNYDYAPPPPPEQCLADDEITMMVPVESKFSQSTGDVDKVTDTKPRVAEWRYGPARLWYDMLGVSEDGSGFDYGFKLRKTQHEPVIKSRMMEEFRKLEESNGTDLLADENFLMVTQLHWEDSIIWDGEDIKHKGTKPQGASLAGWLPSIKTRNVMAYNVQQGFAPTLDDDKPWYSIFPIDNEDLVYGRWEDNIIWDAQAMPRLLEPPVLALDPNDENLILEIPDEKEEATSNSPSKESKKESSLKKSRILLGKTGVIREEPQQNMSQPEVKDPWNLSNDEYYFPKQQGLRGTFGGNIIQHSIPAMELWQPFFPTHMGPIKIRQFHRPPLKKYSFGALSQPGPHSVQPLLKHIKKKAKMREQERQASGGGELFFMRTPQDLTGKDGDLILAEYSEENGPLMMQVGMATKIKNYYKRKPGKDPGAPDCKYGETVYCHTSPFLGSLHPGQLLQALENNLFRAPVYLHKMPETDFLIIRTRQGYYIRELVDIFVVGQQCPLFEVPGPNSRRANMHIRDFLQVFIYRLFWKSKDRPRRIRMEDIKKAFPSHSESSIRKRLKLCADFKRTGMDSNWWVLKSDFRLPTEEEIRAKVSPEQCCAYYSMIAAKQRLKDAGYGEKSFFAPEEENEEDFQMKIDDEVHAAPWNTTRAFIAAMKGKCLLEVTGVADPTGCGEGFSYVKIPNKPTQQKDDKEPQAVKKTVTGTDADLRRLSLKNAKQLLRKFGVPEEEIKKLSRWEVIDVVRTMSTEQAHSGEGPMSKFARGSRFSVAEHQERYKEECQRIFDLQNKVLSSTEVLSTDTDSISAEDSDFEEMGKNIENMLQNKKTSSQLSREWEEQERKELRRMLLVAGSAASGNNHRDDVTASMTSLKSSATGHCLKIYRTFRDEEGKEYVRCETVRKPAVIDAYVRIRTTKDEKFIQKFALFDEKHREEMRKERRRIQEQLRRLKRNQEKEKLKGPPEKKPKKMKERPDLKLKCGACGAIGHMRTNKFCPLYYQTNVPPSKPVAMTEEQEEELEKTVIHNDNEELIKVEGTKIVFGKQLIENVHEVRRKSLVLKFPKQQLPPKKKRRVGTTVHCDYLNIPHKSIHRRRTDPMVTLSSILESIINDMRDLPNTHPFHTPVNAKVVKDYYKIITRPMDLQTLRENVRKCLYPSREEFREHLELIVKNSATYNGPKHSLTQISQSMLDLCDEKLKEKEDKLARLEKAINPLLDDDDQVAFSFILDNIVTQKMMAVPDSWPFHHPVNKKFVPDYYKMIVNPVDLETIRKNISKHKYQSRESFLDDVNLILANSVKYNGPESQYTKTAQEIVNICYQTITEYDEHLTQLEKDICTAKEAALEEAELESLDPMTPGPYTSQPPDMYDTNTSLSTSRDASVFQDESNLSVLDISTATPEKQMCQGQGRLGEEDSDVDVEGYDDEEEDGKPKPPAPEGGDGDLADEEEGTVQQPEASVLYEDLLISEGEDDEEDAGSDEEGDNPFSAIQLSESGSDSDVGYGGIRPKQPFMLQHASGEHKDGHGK

[3] = molecular target: RAC-beta serine/threonine-protein kinase (Homo sapiens) (UniProt P31751); assay: Selectivity interaction (Kinase panel (Invitrogen)) EUB0000639a AKT2; conditions: at 200 nM
Sequence of RAC-beta serine/threonine-protein kinase (Homo sapiens) (P31751 whole entry, canonical isoform): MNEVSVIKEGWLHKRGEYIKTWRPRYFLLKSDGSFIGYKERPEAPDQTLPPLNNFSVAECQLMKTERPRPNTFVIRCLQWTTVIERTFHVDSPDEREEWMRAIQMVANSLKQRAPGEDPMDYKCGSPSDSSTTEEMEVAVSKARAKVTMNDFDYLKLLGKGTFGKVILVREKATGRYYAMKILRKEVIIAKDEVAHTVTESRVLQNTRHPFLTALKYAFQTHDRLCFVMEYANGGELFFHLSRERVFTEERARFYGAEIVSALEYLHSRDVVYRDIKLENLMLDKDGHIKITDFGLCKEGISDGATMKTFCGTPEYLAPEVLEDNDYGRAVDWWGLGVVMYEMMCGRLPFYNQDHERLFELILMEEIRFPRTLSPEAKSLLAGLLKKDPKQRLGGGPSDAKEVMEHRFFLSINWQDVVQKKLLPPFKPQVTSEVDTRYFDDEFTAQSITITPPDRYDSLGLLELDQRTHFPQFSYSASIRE

[4] = molecular target: T2, Phosphorylase b kinase gamma catalytic chain, liver/testis isoform (Homo sapiens) (UniProt P15735); assay: Selectivity interaction (KinomeScan (DiscoverX)) EUB0000595a PHKG2; conditions: at 10 µM
T2 sequence (whole entry): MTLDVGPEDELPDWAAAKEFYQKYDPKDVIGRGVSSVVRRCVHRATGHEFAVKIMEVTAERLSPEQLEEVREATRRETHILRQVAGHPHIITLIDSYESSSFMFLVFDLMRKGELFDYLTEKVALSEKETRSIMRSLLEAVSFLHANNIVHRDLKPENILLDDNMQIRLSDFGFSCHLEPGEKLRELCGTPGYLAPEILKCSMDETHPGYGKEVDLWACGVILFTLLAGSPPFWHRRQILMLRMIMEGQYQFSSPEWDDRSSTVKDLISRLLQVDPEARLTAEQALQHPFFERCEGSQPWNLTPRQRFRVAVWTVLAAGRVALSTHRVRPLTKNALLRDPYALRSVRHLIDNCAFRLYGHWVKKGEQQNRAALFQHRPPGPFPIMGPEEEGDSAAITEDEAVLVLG

[5] = molecular target: Dual specificity mitogen-activated protein kinase kinase 1 (Homo sapiens, UniProt Q02750); assay: Selectivity interaction (KinomeScan (DiscoverX)) EUB0000595a MAP2K1; conditions: at 10 µM
Sequence of Dual specificity mitogen-activated protein kinase kinase 1 (Q02750 whole entry): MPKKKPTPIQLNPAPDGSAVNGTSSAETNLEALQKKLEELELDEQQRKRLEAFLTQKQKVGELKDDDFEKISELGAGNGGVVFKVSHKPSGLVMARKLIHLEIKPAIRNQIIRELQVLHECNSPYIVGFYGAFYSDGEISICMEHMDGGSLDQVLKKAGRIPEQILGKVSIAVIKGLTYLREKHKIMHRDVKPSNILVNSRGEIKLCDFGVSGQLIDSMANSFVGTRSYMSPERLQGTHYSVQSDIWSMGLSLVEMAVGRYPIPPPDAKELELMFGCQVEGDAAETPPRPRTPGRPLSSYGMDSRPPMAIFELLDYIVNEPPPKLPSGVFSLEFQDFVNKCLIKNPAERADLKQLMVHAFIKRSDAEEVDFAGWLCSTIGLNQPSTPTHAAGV

[6] = molecular target: Serine/threonine-protein kinase PLK3 (Homo sapiens, UniProt Q9H4B4); assay: Selectivity interaction (KinomeScan (DiscoverX)) EUB0000595a PLK3; conditions: at 10 µM
[7] = molecular target: Proto-oncogene tyrosine-protein kinase Src (Homo sapiens, UniProt P12931); assay: Selectivity interaction (ActivX KiNativ screen (ex vivo kinase selectivity in human PBMCs)) EUB0001619a SRC; type: cell-based; conditions: PBMC, at 1 µM
Sequence of Proto-oncogene tyrosine-protein kinase Src (P12931 2-536 limits assumed): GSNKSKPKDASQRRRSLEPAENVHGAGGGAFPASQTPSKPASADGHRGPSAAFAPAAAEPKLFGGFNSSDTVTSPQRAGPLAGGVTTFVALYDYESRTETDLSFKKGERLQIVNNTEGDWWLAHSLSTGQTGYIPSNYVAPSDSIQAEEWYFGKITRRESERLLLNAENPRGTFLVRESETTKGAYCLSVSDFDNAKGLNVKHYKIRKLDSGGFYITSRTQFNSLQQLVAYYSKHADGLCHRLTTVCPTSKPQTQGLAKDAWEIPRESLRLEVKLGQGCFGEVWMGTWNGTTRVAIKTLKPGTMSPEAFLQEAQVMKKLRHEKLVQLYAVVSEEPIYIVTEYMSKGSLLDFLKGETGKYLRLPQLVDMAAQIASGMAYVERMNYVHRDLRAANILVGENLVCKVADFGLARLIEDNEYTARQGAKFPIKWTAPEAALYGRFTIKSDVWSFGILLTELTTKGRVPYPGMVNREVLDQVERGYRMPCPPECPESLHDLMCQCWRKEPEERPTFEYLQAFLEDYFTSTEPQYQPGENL

[8] = molecular target: Calcium/calmodulin-dependent protein kinase kinase 2 (Homo sapiens) (UniProt Q96RR4); assay: Selectivity interaction (KinomeScan (DiscoverX)) EUB0000655a CAMKK2; conditions: at 10 µM
Sequence of Calcium/calmodulin-dependent protein kinase kinase 2 (Homo sapiens) (Q96RR4 2-588 limits assumed): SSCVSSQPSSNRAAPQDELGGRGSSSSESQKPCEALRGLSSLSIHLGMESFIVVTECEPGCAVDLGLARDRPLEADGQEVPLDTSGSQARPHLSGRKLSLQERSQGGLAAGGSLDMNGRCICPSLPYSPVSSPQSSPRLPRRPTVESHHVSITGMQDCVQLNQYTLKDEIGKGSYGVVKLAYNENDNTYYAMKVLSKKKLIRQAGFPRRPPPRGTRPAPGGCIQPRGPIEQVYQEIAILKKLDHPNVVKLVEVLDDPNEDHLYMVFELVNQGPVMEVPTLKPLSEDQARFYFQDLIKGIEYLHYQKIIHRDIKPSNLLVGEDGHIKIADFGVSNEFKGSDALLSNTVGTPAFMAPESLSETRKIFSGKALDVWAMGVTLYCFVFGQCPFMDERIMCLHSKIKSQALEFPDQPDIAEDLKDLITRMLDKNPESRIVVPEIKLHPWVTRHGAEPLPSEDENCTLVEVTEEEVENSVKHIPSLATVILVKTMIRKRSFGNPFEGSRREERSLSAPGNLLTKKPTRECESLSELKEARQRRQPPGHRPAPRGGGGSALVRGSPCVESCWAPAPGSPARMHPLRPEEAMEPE

[9] = molecular target: 3',5'-cyclic-AMP phosphodiesterase 4B (Homo sapiens) (UniProt Q07343); assay: Selectivity interaction (Panel of kinases, GPCRs, ion channels and transporters (enzymatic assay)) EUB0000266bCl PDE4B
Sequence of 3',5'-cyclic-AMP phosphodiesterase 4B (Homo sapiens) (Q07343 whole entry): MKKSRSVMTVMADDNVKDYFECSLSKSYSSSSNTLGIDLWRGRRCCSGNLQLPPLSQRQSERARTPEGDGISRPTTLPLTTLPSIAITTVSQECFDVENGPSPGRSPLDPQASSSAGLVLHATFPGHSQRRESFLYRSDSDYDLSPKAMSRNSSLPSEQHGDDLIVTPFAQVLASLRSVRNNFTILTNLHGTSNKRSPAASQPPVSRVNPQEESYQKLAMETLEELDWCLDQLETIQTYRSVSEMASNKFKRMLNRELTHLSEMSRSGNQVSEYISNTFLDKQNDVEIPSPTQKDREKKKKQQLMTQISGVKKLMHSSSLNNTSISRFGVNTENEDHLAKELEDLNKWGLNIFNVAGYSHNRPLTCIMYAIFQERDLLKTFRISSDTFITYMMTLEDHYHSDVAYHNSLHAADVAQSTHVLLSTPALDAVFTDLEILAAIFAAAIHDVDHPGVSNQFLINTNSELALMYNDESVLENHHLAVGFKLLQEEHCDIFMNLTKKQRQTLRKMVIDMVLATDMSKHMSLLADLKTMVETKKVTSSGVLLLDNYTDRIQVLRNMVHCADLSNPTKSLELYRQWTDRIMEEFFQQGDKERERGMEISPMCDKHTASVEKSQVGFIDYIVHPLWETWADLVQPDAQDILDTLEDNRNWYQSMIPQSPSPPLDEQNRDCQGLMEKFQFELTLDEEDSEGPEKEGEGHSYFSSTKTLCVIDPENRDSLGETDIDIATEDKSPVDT

[10] = molecular target: Glycogen synthase kinase-3 alpha (Homo sapiens, UniProt P49840); assay: Selectivity interaction (ProQinase) EUB0000171b GSK3A
Sequence of Glycogen synthase kinase-3 alpha (P49840 2-483 limits assumed): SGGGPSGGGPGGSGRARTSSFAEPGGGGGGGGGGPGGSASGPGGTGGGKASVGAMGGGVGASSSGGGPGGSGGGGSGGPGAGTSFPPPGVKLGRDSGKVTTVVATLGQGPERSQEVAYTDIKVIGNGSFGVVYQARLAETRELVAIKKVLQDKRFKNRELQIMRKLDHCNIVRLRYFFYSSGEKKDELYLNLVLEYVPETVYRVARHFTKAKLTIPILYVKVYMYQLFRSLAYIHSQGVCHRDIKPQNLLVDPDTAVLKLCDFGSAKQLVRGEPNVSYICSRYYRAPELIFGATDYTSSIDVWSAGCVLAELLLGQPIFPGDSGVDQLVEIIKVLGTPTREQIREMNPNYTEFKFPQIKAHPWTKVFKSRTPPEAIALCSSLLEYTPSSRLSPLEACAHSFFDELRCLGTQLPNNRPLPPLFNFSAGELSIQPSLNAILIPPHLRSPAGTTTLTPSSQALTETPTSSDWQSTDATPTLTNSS

CC(=O)Nc1cccc(-n2c(=O)n(C3CC3)c(=O)c3c(Nc4ccc(I)cc4F)n(C)c(=O)c(C)c32)c1
% of control [1]: 93%

CN(C)CCCOc1ccc(-c2cc(NCCCn3cccn3)nc(S(C)(=O)=O)n2)cc1
dTM [2]: < 2 K

CC[C@@H]1[C@H](F)C(=O)N[C@@H]1COc1nccc2cc(C(N)=O)c(OC)cc12 [ZIMLOVISERTIB]
% of inhibition [3]: 4.03%

COCC(=O)NC/C=C/c1ccc2ncnc(Nc3ccc(Oc4ccc(C)nc4)c(C)c3)c2c1 [CP-724714]
% of control [4]: 86% | % of control [5]: 9.4% | % of control [6]: 99%

N#Cc1cccc(-c2c[nH]c3ncnc(N4CCOCC4)c23)c1
% of inhibition [7]: -9%

CN(C)CCOc1ccc(-c2nc(-c3ccncc3)c(-c3ccc4c(c3)CC/C4=N\O)[nH]2)cc1
% of control [8]: 88%

CCn1c(-c2nc3cc(C(=O)N4CCCC(N)C4)ccc3n2C)cc2ccccc21 (stereo unspecified)
pXC50 [9]: 4.6 M

C=CC(=O)Nc1cccc(C(=O)Nc2ccc(Nc3cc(-c4[nH]c(SC)nc4C)ccn3)cc2)c1
% of control ([10]; at 1 µM): 90% | % of control ([10]; at 5 µM): 61%
